Tests used:
[1] = Heparin affinity chromatography (HiTrap Heparin HP sepharose column, NaCl gradient); assay type: binding, porcine; conditions: 20 mM phosphate pH 7.4, NaCl gradient
Method: (A) Chromatograms of PACAP38 elution with increasing NaCl concentration on a sepharose heparin column connected to a FPLC Aktapure system.
The relative binding affinity of the peptides for sulfated GAGs was evaluated using a 1 mL HiTrap Heparin HP column packed with sepharose and immobilized heparin from porcine intestinal mucosa (GE Healthcare, Baie-d'Urfé, QC, Canada). The column was connected to a FPLC Aktapure system (GE Healthcare) and equilibrated with phosphate buffer (20 mM, pH 7.4) prior to injection. Five hundred microliters of 0.5 mg/mL peptide solutions were injected at a flow rate of 0.5 mL/min. After injection, the elution consisted of an isocratic step of 5 mL phosphate buffer (20 mM, pH 7.4) followed by a gradient from 0 to 2 M NaCl in phosphate buffer (pH 7.4). Peptide elution was monitored using absorbance at 230 nm.

[2] = system: CHO pgs-A-745 cells; assay: Cellular uptake of fluorescently labelled peptides by flow cytometry, GAGs-deficient CHO pgs-A-745 cells; assay type: cell-based, Chinese hamster; conditions: 1 µM fluorescently labelled peptide, 1 h at 37 °C
Method: Figure 1 Cellular uptake of cationic peptide hormones and TAT peptide. […] Data represent the relative mean fluorescence intensity (± S.E.M.) of gated cells from at least 3 individual experiments and results are expressed as a percentage of the median fluorescence for 1 μM PACAP38 in CHO K1 cells. Cells were incubated for 1 h at 37 °C in 5% CO2 with fluorescently labelled peptides, washed twice in HBSS, treated with 100 μg/mL heparin for 5 min, detached by trypsin treatment, washed by centrifugation and resuspended in ice-cold sorting buffer before flow cytometry analysis.
Chinese hamster ovary cells K1 (CHO K1; obtained from ATCC, Manassas, VA, USA) and xylosyltransferase deficient cells (CHO pgs-A-745; obtained from ATCC) were maintained in Ham’s F12 medium supplemented with 10% foetal bovine serum (FBS), 2 mM L-glutamine and antibiotic (10,000 UI/mL penicillin, and 10,000 UI/mL streptomycin). […]
For cellular uptake measurement, CHO K1 and CHO pgs-A-745 were seeded in 12-well plates at a density of 30,000 cells/well for 48 h to approximately 75% confluence. […] To confirm that the fluorescence measured by flow cytometry was not associated to non-specific binding of the FITC-peptides at the cell surface, we performed the analysis after treatment with the fluorescent quencher trypan blue. […]

[3] = Heparin clustering measured by turbidity at 400 nm, heparin-into-peptide titration; assay type: physicochemical; conditions: 1.25 µL aliquots of 100 µM heparin into 1 mL 50 µM peptide, 20 mM phosphate, 100 mM NaCl, pH 7.4
Method: Each peak corresponds to the injection of 1.25 μL of a 100 μM heparin solution (20 mM phosphate, 100 mM NaCl, pH 7.4) into a 1 mL 50 μM peptide solution (20 mM phosphate, 100 mM NaCl, pH 7.4).
The formation of macromolecular GAG-peptide clusters was monitored by measuring the light scattering at 400 nm, as previously described [27, 28], using a 100 Bio Cary UV-visible spectrophotometer (Varian, Malton, ON, Canada). Briefly, for the heparin-into-peptide titration, a 1 cm length quartz cuvette was filled with 1 mL of a 50 μM peptide solution (20 mM phosphate buffer, 100 mM·NaCl, pH 7.4) and 1.25 μL aliquots of a 100 μM heparin solution (20 mM phosphate buffer, 100 mM·NaCl, pH 7.4) were successively added. The solution was gently mixed by vortex and the turbidity at 400 nm was immediately measured. For the peptide-into-heparin titration, a 1 cm length quartz cuvette was filled with 1 mL of a 10 μM heparin solution (20 mM phosphate buffer, 100 mM·NaCl, pH 7.4) and 12.5 μL aliquots of a 200 μM peptide solution (20 mM phosphate buffer, 100 mM·NaCl, pH 7.4) were successively added. The solution was gently mixed by vortex and the turbidity at 400 nm was immediately measured. Data was expressed as solution turbidity at 400 nm as function of peptide/heparin or heparin/peptide molar ratio.

[4] = system: CHO K1 cells; assay: Cellular uptake of fluorescently labelled peptides by flow cytometry, CHO K1 cells; assay type: cell-based, Chinese hamster; conditions: 1 µM fluorescently-labelled (FITC-Ahx N-terminal) peptide, 1 h at 37 °C, 1% FBS Ham's F12, heparin wash and trypsin, at least 3 experiments
Method: Chinese hamster ovary cells K1 (CHO K1; obtained from ATCC, Manassas, VA, USA) and xylosyltransferase deficient cells [18] (CHO pgs-A-745; obtained from ATCC) were maintained in Ham’s F12 medium supplemented with 10% foetal bovine serum (FBS), 2 mM L-glutamine and antibiotic (10,000 UI/mL penicillin, and 10,000 UI/mL streptomycin). Cells were maintained as a monolayer at 37 °C in a humidified atmosphere of 5% CO2 and 95% air and passaged by trypsinization when the cells reached 70%–80% confluence.

[5] = previously shown; cited from earlier work
Excerpt: This could be related to the fact that arginine has a higher affinity for sulfated GAGs than lysine.

[6] = previously shown; cited from earlier work; remark: listed apart in the source
Excerpt: We recently reported that upon binding to sulfated GAGs, PACAP38 undergoes a random coil-to-α-helix conformational conversion. […] Thus, we evaluated if the lower efficacy of cellular uptake of representative peptides of the secretin/glucagon/GHRH superfamily and of calcitonin could not be ascribed to the incapacity of ...

Sequence | Relative binding to heparin column (in words) [1] | Extent of internalization in CHO pgs-A-745 versus CHO K1 cells (in words) [2] | Turbidity at 400 nm on titration of heparin into peptide (in words) [3] | Cellular uptake, fold lower compared to PACAP38 [4] | NaCl concentration at which TAT is eluted from heparin column [5] | Secondary conformation of TAT upon binding to heparin [6]
CGNLSTCMLGTYTQDFNKFHTFPQTAIGVGAP [Calcitonin] | bind weakly to the heparin column | rather similar | absence of turbidity | 5- to 10 fold |  | 
GRKKRRQRRRPPQ [TAT(48–60), cationic peptide derived from the HIV-1 protein TAT, the control CPP used in this study] |  |  |  |  | around 1.8 M | adopts an α-helical conformation

Source: paper PMC4661883, “Cell-Penetrating Ability of Peptide Hormones: Key Role of Glycosaminoglycans Clustering” (International Journal of Molecular Sciences, 2015)
